# Data reported in patent publication US20240002391A1, “4-ALKOXYPYRROLO[2,1-F][1,2,4]TRIAZINES AND PREPARATION AND USES THEREOF” (BioSplice Therapeutics, Inc., priority 2022, published 2024).
# pIC50: −log10 of the molar value.
# Target: recombinant DYRK1A kinase (Homo sapiens (Human), UniProt Q13627)
# Assay: DYRK1A kinase assay (Ser/Thr 18 peptide Z-lyte FRET)
# Type: biochemical
# Conditions: DYRK1A kinase activity, Z-lyte Ser/Thr 18 peptide, 15 μM ATP; method text calls the value IC50; read-out: EC50 (the source's name)
# Summary of the method: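 Z-lyte FRET: recombinant DYRK1A 0.25 μg/mL, ATP 15 μM, Ser/Thr 18 peptide 4 μM, with compound (11-point 1:3, 10 μM top) 1 h at room temperature, then development reagent 1 h. Coumarin/fluorescein emission ratio converted to % phosphorylation; IC50 by non-linear regression, duplicates.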
row,pIC50,Molecule
1,8.92,"CNC(=O)[C@]1(C)C[C@@H](Nc2nc(OC)c3c(-c4ccc5nccnc5c4)ccn3n2)C1 [Compound 338, trans-3-((4-Methoxy-5-(quinoxalin-6-yl)pyrrolo[2,1-f][1,2,4]triazin-2-yl)amino)-N,1-dimethylcyclobutane-1-carboxamide]"
2,8.16,"COc1nc(N[C@H]2CCN(C)CC2(F)F)nn2ccc(-c3ccc4nc(C)n(CC(F)F)c4c3)c12 [Compound 139, (S)—N-(3,3-Difluoro-1-methylpiperidin-4-yl)-5-(1-(2,2-difluoroethyl)-2-methyl-1H-benzo[d]imidazol-6-yl)-4-methoxypyrrolo[2,1-f][1,2,4]triazin-2-amine]"
3,8.77,"COc1nc(N[C@H]2CC[C@](C)(O)CC2)nn2ccc(-c3ccc4nccnc4c3)c12 [Compound 347, trans-4-((4-Methoxy-5-(quinoxalin-6-yl)pyrrolo[2,1-f][1,2,4]triazin-2-yl)amino)-1-methylcyclohexan-1-ol]"
4,8.28,"COc1nc(N[C@H]2C[C@@](C)(NC(C)=O)C2)nn2ccc(-c3ccc4ncnn4c3)c12 [Compound 191, N-(cis-3-((5-([1,2,4]Triazolo[1,5-a]pyridin-6-yl)-4-methoxypyrrolo[2,1-f][1,2,4]triazin-2-yl)amino)-1-methylcyclobutyl)acetamide]"
5,8.92,"COc1nc(N[C@H]2CC[C@](C)(O)CC2)nn2ccc(-c3ccc4ncc(C(N)=O)n4c3)c12 [Compound 104, 6-(2-((trans-4-hydroxy-4-methylcyclohexyl)amino)-4-methoxypyrrolo[2,1-f][1,2,4]triazin-5-yl)imidazo[1,2-a]pyridine-3-carboxamide]"
6,8.64,"CCN1CC[C@H](Nc2nc(OC)c3c(-c4ccc5nnn(CC(F)F)c5c4)ccn3n2)[C@H](F)C1 [Compound 755, 5-(1-(2,2-Difluoroethyl)-1H-benzo[d][1,2,3]triazol-6-yl)-N-((3R,4S)-1-ethyl-3-fluoropiperidin-4-yl)-4-methoxypyrrolo[2,1-f][1,2,4]triazin-2-amine]"
7,9.05,"COc1nc(N[C@H]2C[C@](C)(NC(C)=O)C2)nn2ccc(-c3ccc4nccnc4c3)c12 [Compound 334, N-(trans-3-((4-Methoxy-5-(quinoxalin-6-yl)pyrrolo[2,1-f][1,2,4]triazin-2-yl)amino)-1-methylcyclobutyl)acetamide]"
8,8.68,"COc1nc(N[C@H]2CCN(C(C)=O)C[C@H]2F)nn2ccc(-c3ccc4ncccc4c3)c12 [Compound 1047, 1-((3R,4S)-3-Fluoro-4-((4-methoxy-5-(quinolin-6-yl)pyrrolo[2,1-f][1,2,4]triazin-2-yl)amino)piperidin-1-yl)ethan-1-one]"
9,8.68,"COc1nc(N[C@H]2C[C@@](C)(NC(=O)C3(C#N)CC3)C2)nn2ccc(-c3ccn4nccc4c3)c12 [Compound 394, 1-Cyano-N-((1s,3s)-3-((4-methoxy-5-(pyrazolo[1,5-a]pyridin-5-yl)pyrrolo[2,1-f][1,2,4]triazin-2-yl)amino)-1-methylcyclobutyl)cyclopropane-1-carboxamide]"
10,9.22,"COc1nc(N[C@H]2C[C@](C)(O)C2)nn2ccc(-c3ccn4nccc4c3)c12 [Compound 8, trans-3-((4-Methoxy-5-(pyrazolo[1,5-a]pyridin-5-yl)pyrrolo[2,1-f][1,2,4]triazin-2-yl)amino)-1-methylcyclobutan-1-ol]"
11,9.22,"COc1nc(N[C@H]2CC[C@](C)(O)CC2)nn2ccc(-c3ccc4nnn(CC(F)F)c4c3)c12 [Compound 725, (1r,4r)-4-((5-(1-(2,2-difluoroethyl)-1H-benzo[d][1,2,3]triazol-6-yl)-4-methoxypyrrolo[2,1-f][1,2,4]triazin-2-yl)amino)-1-methylcyclohexan-1-ol]"
12,8.77,"COc1nc(NC2CC3(COC3)C2)nn2ccc(-c3ccc4nccnc4c3)c12 [Compound 385, 4-Methoxy-5-(quinoxalin-6-yl)-N-(2-oxaspiro[3.3]heptan-6-yl)pyrrolo[2,1-f][11,2,4]triazin-2-amine]"
13,8.72,"CCN1CC[C@@H](Nc2nc(OC)c3c(-c4ccc5nnn(CC(F)F)c5c4)ccn3n2)C(F)(F)C1 [Compound 780, (R)-5-(1-(2,2-Difluoroethyl)-1H-benzo[d][1,2,3]triazol-6-yl)-N-(1-ethyl-3,3-difluoropiperidin-4-yl)-4-methoxypyrrolo[2,1-f][1,2,4]triazin-2-amine]"
14,8.48,"COc1nc(N[C@@H]2CCN(C3COC3)CC2(F)F)nn2ccc(-c3ccc4nccnc4c3)c12 [Compound 379, (R)—N-(3,3-Difluoro-1-(oxetan-3-yl)piperidin-4-yl)-4-methoxy-5-(quinoxalin-6-yl)pyrrolo[2,1-f][1,2,4]triazin-2-amine]"
15,7.94,"COc1nc(N[C@H]2C[C@@](C)(NC(=O)OC(C)(C)C)C2)nn2ccc(-c3ccc4nccnc4c3)c12 [Compound 337, tert-Butyl (cis-3-((4-methoxy-5-(quinoxalin-6-yl)pyrrolo[2,1-f][1,2,4]triazin-2-yl)amino)-1-methylcyclobutyl)carbamate]"
16,8.77,"COc1nc(N[C@H]2CCN(C)C[C@H]2F)nn2ccc(-c3ccc4nnn(CC(F)F)c4c3)c12 [Compound 754, 5-(1-(2,2-Difluoroethyl)-1H-benzo[d][1,2,3]triazol-6-yl)-N-((3R,4S)-3-fluoro-1-methylpiperidin-4-yl)-4-methoxypyrrolo[2,1-f][1,2,4]triazin-2-amine]"
17,8.96,"COc1nc(N[C@H]2CC[C@](C)(O)CC2)nn2cc(F)c(-c3ccc4ncccc4c3)c12 [Compound 1056, trans-4-((6-Fluoro-4-methoxy-5-(quinolin-6-yl)pyrrolo[2,1-f][1,2,4]triazin-2-yl)amino)-1-methylcyclohexan-1-ol]"

# The next lines start with the molecule.
row,Molecule,pIC50
1,"COc1nc(N[C@H]2CC[C@](C)(O)CC2)nn2ccc(-c3cc4ccncc4[nH]3)c12 [Compound 284, trans-4-((4-Methoxy-5-(1H-pyrrolo[2,3-c]pyridin-2-yl)pyrrolo[2,1-f][1,2,4]triazin-2-yl)amino)-1-methylcyclohexan-1-ol]",6.63
2,"COc1nc(N[C@@H]2CCN(CCO)CC2(F)F)nn2ccc(-c3cc(F)c4nc(C)n(C(C)C)c4c3)c12 [Compound 549, (R)-2-(3,3-Difluoro-4-((5-(4-fluoro-1-isopropyl-2-methyl-1H-benzo[d]imidazol-6-yl)-4-methoxypyrrolo[2,1-f][1,2,4]triazin-2-yl)amino)piperidin-1-yl)ethan-1-ol]",8.59
3,"COc1nc(N[C@@H]2CC[C@@H]2OC)nn2ccc(-c3cnc4nccn4c3)c12 [Compound 929, 5-(Imidazo[1,2-a]pyrimidin-6-yl)-4-methoxy-N-((1R,2S)-2-methoxycyclobutyl)pyrrolo[2,1-f][1,2,4]triazin-2-amine]",7.70
4,"COc1nc(N[C@@H]2CCN(C3COC3)CC2(F)F)nn2ccc(-c3cnc4nccn4c3)c12 [Compound 968, (R)—N-(3,3-Difluoro-1-(oxetan-3-yl)piperidin-4-yl)-5-(imidazo[1,2-a]pyrimidin-6-yl)-4-methoxypyrrolo[2,1-f][1,2,4]triazin-2-amine]",8.55
5,"COc1nc(N[C@H]2C[C@](C)(N3CCCC3=O)C2)nn2ccc(-c3ccc4nnn(C)c4c3)c12 [Compound 223, 1-(trans-3-((4-methoxy-5-(1-methyl-1H-benzo[d][1,2,3]triazol-6-yl)pyrrolo[2,1-f][1,2,4]triazin-2-yl)amino)-1-methylcyclobutyl)pyrrolidin-2-one]",8.80
6,"COc1nc(N[C@H]2CC[C@@](C)(O)CC2)nn2ccc(-c3ccc4nnn(CC(F)(F)F)c4c3)c12 [Compound 910, (1s,4s)-4-((4-Methoxy-5-(1-(2,2,2-trifluoroethyl)-1H-benzo[d][1,2,3]triazol-6-yl)pyrrolo[2,1-f][1,2,4]triazin-2-yl)amino)-1-methylcyclohexan-1-ol]",8.11
7,"COc1nc(NC2CCC(F)(F)CC2)nn2ccc(-c3cnc4nccn4c3)c12 [Compound 254, N-(4,4-Difluorocyclohexyl)-5-(imidazo[1,2-a]pyrimidin-6-yl)-4-methoxypyrrolo[2,1-f][1,2,4]triazin-2-amine]",8.74
8,"COc1nc(NC23CCC(O)(CC2)C3)nn2ccc(-c3ccc4nnn(CC(F)F)c4c3)c12 [Compound 798, 4-((5-(1-(2,2-Difluoroethyl)-1H-benzo[d][1,2,3]triazol-6-yl)-4-methoxypyrrolo[2,1-f][1,2,4]triazin-2-yl)amino)bicyclo[2.2.1]heptan-1-ol]",9.52
9,"COc1nc(N[C@H]2C[C@@H](OCCO)C2)nn2ccc(-c3ccc4nnn(CC(F)F)c4c3)c12 [Compound 699, 2-(cis-3-((5-(1-(2,2-Difluoroethyl)-1H-benzo[d][1,2,3]triazol-6-yl)-4-methoxypyrrolo[2,1-f][1,2,4]triazin-2-yl)amino)cyclobutoxy)ethan-1-ol]",8.85
10,"COc1nc(N[C@H]2C[C@@](C)(NC(C)=O)C2)nn2ccc(-c3cc(F)c4nnn(CC(F)F)c4c3)c12 [Compound 805, N-((1s,3s)-3-((5-(1-(2,2-Difluoroethyl)-4-fluoro-1H-benzo[d][1,2,3]triazol-6-yl)-4-methoxypyrrolo[2,1-f][1,2,4]triazin-2-yl)amino)-1-methylcyclobutyl)acetamide]",8.80
11,"N-(cis-4-((4-Methoxy-5-(quinolin-6-yl)pyrrolo[2,1-f][1,2,4]triazin-2-yl) amino)cyclohexyl)acetamide [Compound 1044]",8.49
12,"COc1nc(N[C@H]2C[C@@H](OCCO)C2)nn2ccc(-c3ccc4nnn(CC(F)(F)F)c4c3)c12 [Compound 904, 2-(cis-3-((4-Methoxy-5-(1-(2,2,2-trifluoroethyl)-1H-benzo[d][1,2,3]triazol-6-yl)pyrrolo[2,1-f][1,2,4]triazin-2-yl)amino)cyclobutoxy)ethan-1-ol]",8.74
